Source: US9963498B2, “Peptides that inhibit syndecan-1 activation of VLA-4 and IGF-1R” (Wisconsin Alumni Research Foundation, priority 2016, dated 2018)
Entries after “also recorded” stand apart in the source; their conditions may differ. Where no end group is shown, it is not given here.

Key:
[1] = SSTN stability assay in mouse serum; type: in vitro ADME; conditions: for stability (activity retained): mouse serum, 3 days (SSTNIGF1R: more than 3 days); for stability (activity retained) / stability in serum (in words): 37° C.; for stability in serum (in words): mouse (rodent) serum, up to 72 hr
Description: FIG. 16. SSTNI/V IS STABLE IN RODENT SERUM, EQUIVALENT TO SSTNIGF1R AND SSTNVLA4. SSTNI/V, SSTNIGF1R and SSTNVLA4 were incubated at 37° C. for up to 72 hr in mouse serum. Note that rodent serum is known to contain substantial proteolytic activity against peptides. A GRGDSP integrin-inhibitory peptide was used as control, tested against endothelial cell adhesion to fibronectin. Either myeloma cell viability, or endothelial cell adhesion to IIICS fragment was used to test the activity of the SSTN peptides. SSTN peptides were used at up to 30 μM, and the GRGDSP peptide was used up to 1 mM. Activity observed in the assays was plotted against a standard curve to determine relative activity.
(§1) For stability assays, SSTNIGF1R, SSTNVLA4, SSTNI/V and GRGDSP peptide (SEQ ID NO:31; EMD Millipore) were incubated in human plasma (obtained from the UW-Madison Hospital Blood Bank) for 0, 8, 24 or 72 hr, then tested in the endothelial cell adhesion assay or cell viability assay and compared to a standard curve generated using fresh peptide.

HMEC-1 cells = conditions: 20 ng/ml VEGF, 30 μM, 24 h; modified from Jung et al. 2016; cited from earlier work
HMEC-1 = conditions: 16 h, 30 μM; modified from Jung et al. 2016; cited from earlier work
VEGFR2 = conditions: 2 h on IIICS, 10 μM; modified from Jung et al. 2016; cited from earlier work
[2] = test system: CAG myeloma, mouse M21 melanoma, human microvascular endothelial and Jurkat T-lymphoma cells; assay: Cell adhesion to VCAM-1; type: cell-based; conditions: 2 hr, 30 μM
Description: (§2) FIGS. 11A, 11B, 11C, and 11D. […] 11A. CAG myeloma, mouse M21 melanoma, human microvascular endothelial and Jurkat T-lymphoma cells are plated on VCAM-1 for 2 hr in the presence or absence of 30 μM SSTNVLA4 or VLA-4 blocking antibody as a test of specificity. Numbers of adherent cells are quantified and expressed as a percentage of control, untreated cells in FIG. 11B. 11C. Cells are plated on top of filters coated with VCAM-1 allowed to migrate for 16 hr in the presence or absence of 30 μM SSTNVLA4. Cells accumulating on the bottom of the filters are visualized by staining. 11D. Expression level of Sdc1 and VLA-4 are shown by Western blot staining of mouse natural killer (NK) and T-cells harvested from mouse spleens.

[3] = test system: myeloma, melanoma, microvascular endothelial and T-lymphoma cells; assay: Migration through filters coated with VCAM-1; type: cell-based; conditions: 16 hr, 30 μM
Description: as §2

[4] = test system: M21 murine melanoma cells; assay: Melanoma cell invasion through filters coated with fibronectin; type: cell-based, mouse; conditions: 16 hr, 30 μM peptide
Description: FIG. 17. […] M21 murine melanoma cells are allowed to migrate for 16 hr through filters coated with fibronectin. The relative roles of the αvβ3 integrin and the α4β1 integrin (VLA-4) are determined using blocking antibodies to αv and α4 integrin subunits, or both antibodies combined.

CAG myeloma cells = CAG myeloma cells plated on FN for 2.5 hr; 0, 0.3, 3, or 30 μM; modified from Jung et al. 2016; cited from earlier work
[5] = test system: B78 murine melanoma cells; assay: Melanoma cell survival (trypan blue exclusion); type: cell-based, mouse; conditions: up to 72 hr, 30 μM
Description: FIG. 18. SSTNI/V BLOCKS SURVIVAL OF MOUSE MELANOMA CELLS. B78 murine melanoma cells grown in serum-containing DMEM are incubated for up to 72 hr in 30 μM SSTNVLA4, SSTNIGF1R or SSTNI/V, then viable cells were quantified by trypan blue exclusion.
All cells were cultured at 37° C. and 92.5% air/7.5% CO2. The derivation and culture of CAG myeloma and HMEC-1 cells are described previously (Ades et al. 1992, Rapraeger et al. 2013). B78 murine melanoma cells were kindly provided by Dr. Sondel, Department of Pediatrics, University of Wisconsin-Madison. All cells are routinely screened for mycoplasma contamination. For viability studies, 2.5×10^4 myeloma cells/well or 10^4 B78 murine melanoma cells were plated in 96-well plates in complete DMEM containing 10% calf serum in the presence or absence of SSTN peptides for 24, 48 or 72 hrs. Numbers of viable cells were then determined by addition of CellTiter-GLO reagent to the culture medium as described by the manufacturer and viable cells determined by staining with 0.4% trypan blue and counting cells that exclude (viable) or take up (dead) the stain.

[6] = test system: HaCaT keratinocytes and MCF10A breast epithelial cells; conditions: 3, 10 or 30 μM, 3 days; Beauvais et al. 2016; cited from earlier work
[7] = test system: UM-SCC47, SCC25, MDA-MB-468, MDA-MB-231, MCF-7 and SKBr3 carcinoma cells; conditions: 3, 10 or 30 μM, 3 days; Beauvais et al. 2016; cited from earlier work
[8] = Beauvais et al., 2016; plasma species not printed at the place; cited from earlier work
[9] = test system: CAG myeloma tumor xenografts; conditions: nude mice, Alzet pumps 0.365 mg/kg/day, 4 weeks; modified from Beauvais et al. 2016; cited from earlier work
[10] = SSTN stability in bovine serum; type: in vitro ADME; conditions: more than 3 days at 37° C.
[11] = test system: Apoptosis signal regulating kinase-1 (ASK1); conditions: CAG or MM.1R myeloma cells, 6 hr, 10 μM; modified from Beauvais et al. 2016; cited from earlier work
[12] = SSTN stability assay in human plasma; type: in vitro ADME; conditions: more than 3 days at 37° C.
Description: as §1

[13] = test system: angiogenesis in the mouse cornea; conditions: induced by FGF in the mouse cornea; Beauvais et al., 2009; cited from earlier work
[14] = Beauvais et al., 2016; cited from earlier work

SSTNVLA4: peptide mimetic of the VLA-4 binding site of Sdc1, comprised of amino acids 210-233 (or 210-221) (DFTFETSGENTAVVAVEPDRRNQS)
stability (activity retained) [1]: 100% | tube formation (HMEC-1 cells): prevents the angiogenic phenotype; also recorded: BLOCKS | endothelial cell invasion (HMEC-1): BLOCKS | VEGFR2 activation (VEGFR2): BLOCKS | binding of cells to the VLA-4 ligand VCAM-1 [2]: prevented | invasion of cells through VCAM-1-coated filters [3]: BLOCKS THE INVASION | invasion of cells through VCAM-1-coated filters ([3]; listed as SSTNVLA-4): prevented | block of melanoma cell invasion [4]: partially block; also recorded: partial block | VLA-4-mediated adhesion of myeloma cells (CAG myeloma cells): displaced from VLA-4 ligands; also recorded: BLOCKS | melanoma cell survival [5]: only a minimal effect; also recorded: only minimally

LPAGEGPKEGEAVVLPEVEPGLTAREQDFTFETSGENTA [SSTNI/V]
stability in serum (in words) [1]: highly stable; also recorded: same remarkable stability | stability (activity retained) [1]: 100%

N=C(N)NCCC[C@H](NC(=O)CN)C(=O)NCC(=O)N[C@@H](CC(=O)O)C(=O)N[C@@H](CO)C(=O)N1CCC[C@H]1C(=O)O [GRGDSP]
time to complete inactivation ([1]; control peptide, tested by endothelial cell adhesion to fibronectin): ≤ 8 h | stability in serum (in words) [1]: destroyed within a matter of a few hr

SSTNIGF1R: peptide mimetic of the Sdc1 docking site (aa93-120 in human Sdc1) that captures IGF-1R and the αvβ3 or αvβ5 integrin
stability (activity retained) [1]: 100% | growth of normal epithelial cells [6]: not affected and NOT | growth of carcinoma cells [7]: BLOCKS THE GROWTH | stability when incubated in plasma [8]: remarkable stability | growth of myeloma tumors [9]: INHIBITS GROWTH | stability (activity retained) [10]: 100% | ASK-1 activation [11]: ACTIVATES | block of melanoma cell invasion [4]: partially block; also recorded: partial block | stability (activity retained) [12]: 100% | abnormal angiogenesis in vivo [13]: block abnormal angiogenesis | half-life in vivo [14]: ca. 27 hr | melanoma cell survival [5]: killed; also recorded: blocked
